Results on seven compounds are retold here after patent US6103883A (priority 1999, dated 2000).

One assay concerns the target T1, verotoxin binding to Gb3 (Enterobacteria phage H19B, UniProt P69179). As to conditions: competition with radiolabelled verotoxin 1; FIG. 5C.
As to `CN(C)C(CO[C@@H]1O[C@H](CO)[C@@H](O[C@@H]2O[C@H](CO)[C@H](O[C@H]3O[C@H](CO)[C@H](O)[C@H](O)[C@H]3O)[C@H](O)[C@H]2O)[C@H](O)[C@H]1O)C(O)C(=O)NC12CC3CC(CC(C3)C1)C2` (stereo partly shown) [Compound A], the “inhibition of verotoxin binding to Gb3” value is recorded as “effective inhibition”.

Turning to `CN(C)C(CO[C@@H]1O[C@H](CO)[C@@H](O[C@@H]2O[C@H](CO)[C@H](O[C@H]3O[C@H](CO)[C@H](O)[C@H](O)[C@H]3O)[C@H](O)[C@H]2O)[C@H](O)[C@H]1O)C(O)C(=O)Nc1c2c(nc3ccccc13)CCCC2` (stereo partly shown) [Compound B], the “inhibition of verotoxin binding to Gb3” value was “effective inhibition”.

With `OC[C@H]1O[C@H](O[C@@H]2[C@H](O)[C@@H](O)[C@H](O[C@H]3[C@H](O)[C@@H](O)C(O)O[C@@H]3CO)O[C@@H]2CO)[C@H](O)[C@@H](O)[C@H]1O` (stereo partly shown) [Gb3 -sugar, globotriaose, reference compound], the “inhibition of verotoxin binding to Gb3” value is given as “virtually no inhibition”.

Another assay addresses T1, verotoxin binding to Gb3. As to conditions: spectrophotometric detection; FIG. 6B.
For the compound `O=C(CC12CC3CC(CC(C3)C1)C2)NC(CO[C@@H]1O[C@H](CO)[C@@H](O[C@@H]2O[C@H](CO)[C@H](O[C@H]3O[C@H](CO)[C@H](O)[C@H](O)[C@H]3O)[C@H](O)[C@H]2O)[C@H](O)[C@H]1O)C(O)C(=O)O` (stereo partly shown) [Compound A1], the “inhibition of binding of verotoxin to Gb3” value is “do not appear to be effective inhibitors”.

With `CCCCCCCCCCCCC/C=C/[C@@H](O)[C@H](CO[C@@H]1O[C@H](CO)[C@@H](O[C@@H]2O[C@H](CO)[C@H](O[C@H]3O[C@H](CO)[C@H](O)[C@H](O)[C@H]3O)[C@H](O)[C@H]2O)[C@H](O)[C@H]1O)NC(=O)CC12CC3CC(CC(C3)C1)C2` [Compound A3], the “inhibition of binding of verotoxin to Gb3” value was “effective water-soluble inhibitor”.

With `CCCCCCCCCCCCC/C=C/[C@@H](O)[C@H](CO[C@@H]1O[C@H](CO)[C@H](O)[C@H](O)[C@H]1O)NC(=O)CC12CC3CC(CC(C3)C1)C2` [Compound B1], the “inhibition of binding of verotoxin to Gb3” value is “do not appear to be effective inhibitors”.

In the case of `O=C(CC12CC3CC(CC(C3)C1)C2)NC(CO[C@@H]1O[C@H](CO)[C@H](O)[C@H](O)[C@H]1O)C(O)C(=O)O` (stereo partly shown) [Compound B2], the “inhibition of binding of verotoxin to Gb3” value is “do not appear to be effective inhibitors”.
